Data as given in US20260258425A1, “MALT1 TUMOR INHIBITOR, PHARMACEUTICAL COMPOSITION CONTAINING THE SAME, AND APPLICATIONS THEREOF” (XZYP (BEIJING) BIOTECH CO., LTD, priority 2023, published 2026).
Entries after “also recorded” stand apart in the source; their conditions may differ.

Assays:
MALT1 = test: Western blot of MALT1 expression in E0771 cells after ASO transfection with Lipofectamine 3000; assay type: cell-based, mouse; settings: ASO final concentration 50 nM, 5 μL Lipofectamine 3000, 48 hours after transfection
Description: S1. Considering the specificity between the antisense nucleic acid and the target nucleic acid and the hairpin-like structure that may be formed by the base complementarity within the nucleotide sequence of the antisense nucleic acid, the nucleotide sequence of the antisense nucleic acid needs to target the amino acid residues at positions 81 and/or 82 of the death domain (DD) of MALT1; S2. Considering the stability of hybridization and the membrane permeability of the antisense oligonucleotide, select the length of the antisense oligonucleotide, which ranges from 15 to 40 bases; S3. Considering the affinity of the antisense oligonucleotide for the target sequence, since the affinity of GC base pairs is greater than that between AU, increasing the ratio of GC base pairs to AU base pairs in the antisense oligonucleotide can appropriately reduce the length of the antisense oligonucleotide; S4. Set a control, which can be missense or reverse; S5. Use the designed antisense oligonucleotides to inhibit the expression of the same target sequence MALT-1 mRNA, and screen the antisense oligonucleotide with the best inhibitory effect. The specific steps for screening the antisense oligonucleotide with the best inhibitory effect are as follows: • a. […] 2×10^5 E0771 cells into each well of a 12-well plate and incubate overnight; • b. On the day after operation a, transfect the corresponding ASO drug with 5 μL of Lipofectamine™ 3000 until its final concentration is 50 nM; • c. 6 hours after operation b, replace the serum-free medium with medium containing 10% serum; • d. 24 hours after operation c, replace the serum-free medium again; • e. 48 hours after operation d, harvest the obtained protein and perform Western blot experiment. The Western blot results of antisense oligonucleotides targeting E0771 cells after transfection with Lipofectamine™ 3000 are shown in FIG. 5: in this figure, 48 hours after transfection with Lipofectamine™ 3000, 5 μL of Lipofectamine™ 3000 was added to each well of the 12-well plate.

ABC DLBCL cells = settings: background statement; cited from earlier work
[1] = tested on: germinal center B-cell (GCB) type DLBCL cells; settings: background statement; cells independent of BCR signaling; cited from earlier work

Substance	inhibition of MALT1 expression (Western blot band) (MALT1)	toxicity in ABC DLBCL cells (ABC DLBCL cells)	sensitivity of GCB type DLBCL cells to the inhibitor [1]
TCATGAGCCTTGGCCCACTG (antisense UCAUGAGCCUUGGCCCACUG; listed as RNA, chemistry not given here) [ASO B]	obvious inhibitory results; also recorded: obvious inhibitory effects	–	–
CAAGAGCAGATTTATTTTGT (antisense CAAGAGCAGAUUUAUUUUGU; listed as RNA, chemistry not given here) [ASO K]	good inhibitory results; also recorded: good inhibitory effects	–	–
zVRPR-FMK	–	induces toxicity	insensitive
TAGAGGCAGTGCTTGGGAAG (antisense UAGAGGCAGUGCUUGGGAAG; listed as RNA, chemistry not given here) [ASO H]	good inhibitory results; also recorded: good inhibitory effects	–	–
TTGTGGACTATACTTGTGTA (antisense UUGUGGACUAUACUUGUGUA; listed as RNA, chemistry not given here) [ASO G]	good inhibitory results; also recorded: good inhibitory effects	–	–
GAGGCAGTGCTTGGGAAGGTC (antisense GAGGCAGUGCUUGGGAAGGUC; listed as RNA, chemistry not given here) [ASO I]	good inhibitory results; also recorded: good inhibitory effects	–	–
AGCCTTGGCCCACTGTAGATT (antisense AGCCUUGGCCCACUGUAGAUU; listed as RNA, chemistry not given here) [ASO A]	good inhibitory results; also recorded: good inhibitory effects	–	–
AAGTTCATGAGCCTTGGCCC (antisense AAGUUCAUGAGCCUUGGCCC; listed as RNA, chemistry not given here) [ASO C]	good inhibitory results; also recorded: good inhibitory effects	–	–
GGTTTGTGGACTATACTTGT (antisense GGUUUGUGGACUAUACUUGU; listed as RNA, chemistry not given here) [ASO25]	obvious inhibitory results; also recorded: obvious inhibitory effects	–	–
GTCCAGCCAACACTGCCTTG (antisense GUCCAGCCAACACUGCCUUG; listed as RNA, chemistry not given here) [ASO J]	good inhibitory results; also recorded: good inhibitory effects	–	–
